The results in this text go back to patent US20260184725A1, “CYCLIC 2-AMINOPYRIMIDINE COMPOUND AND PHARMACEUTICAL COMPOSITION AND USE THEREOF” (SHANGHAI INSTITUTE OF ORGANIC CHEMISTRY, CHINESE ACADEMY OF …, priority 2023, published 2026).

Holding throughout (type): biochemical
The target of one assay is T1, EGFR^19del/T790M/C797S (Homo sapiens, UniProt P00533, T790M/C797S, form not given).
T1 construct: fused on or other part: Probably a GST tag on the cytoplasmic fragment, as in the vendor's product
The assay is described as follows: ELISA kinase activity inhibition, EGFR 19del/T790M/C797S. The following applies: ATP 5 μM, read-out: The average IC50 value (nM) for inhibiting the activity of different tyrosine kinases, EGFR^19del/T790M/C797S. As for the experimental part: (§1) EGFR (WT) is a wild-type epidermal growth factor receptor.
(§2) Enzyme-Linked Immunosorbent Assay (ELISA) was used to detect the inhibitory effect of compounds on kinase activity.
(§3) The main experimental steps were as follows: Enzyme reaction substrate Poly (Glu, Tyr)4:1 was diluted with potassium free PBS (10 mM sodium phosphate buffer, 150 mM NaCl, pH 7.2-7.4) to 20 μg/mL, and reacted at 37° C. for 12 hours to 16 hours to coat the enzyme-linked immunosorbent assay plate. ATP solution (final concentration 5 μM) diluted with reaction buffer (50 mM HEPES pH 7.4, 50 mM MgCl2, 0.5 mM MnCl2, 0.2 mM Na3VO4, 1 mM DTT) was added to each well, followed by the test compound or solvent control, then the kinase reaction was initiated and the plate was shaken at 37° C. for 1 hour. The plate was washed three times with T-PBS, then added antibody PY99. The plate was shaken at 37° C. for 0.5 hours. After washing the plate with T-PBS, added horseradish peroxidase-labeled IgG and shaken at 37° C. for 0.5 hours. After washing the plate again, added 2 mg/mL of OPD colorimetric solution and incubated at 25° C. in the dark for 1 minutes to 10 minutes. […] The IC50 values were obtained from the inhibition curve analysis.
(In an ELISA, binding on a coated surface is turned into a signal by an enzyme label.)

Another assay has as its target T2, EGFR^WT (Homo sapiens, UniProt P00533).
T2 construct: purchased Eurofins
The assay is described as follows: ELISA kinase activity inhibition, wild-type EGFR. The following applies: ATP 5 μM, read-out: The average IC50 value (nM) for inhibiting the activity of different tyrosine kinases, EGFR^WT. Here is the method:
as §1, §2, §3

For another assay, the target named is EGFR^L858R/T790M/C797S (Homo sapiens, UniProt P00533, C797S/L858R/T790M). Kind of assay: ELISA kinase activity inhibition, EGFR L858R/T790M/C797S. Particulars: ATP 5 μM, read-out: The average IC50 value (nM) for inhibiting the activity of different tyrosine kinases, EGFR^L858R/T790M/C797S. As for the experimental part:
as §2, §3

T1 sequence (P00533 with tags, fused parts or gaps DEL746-750/T790M/C797S, form open): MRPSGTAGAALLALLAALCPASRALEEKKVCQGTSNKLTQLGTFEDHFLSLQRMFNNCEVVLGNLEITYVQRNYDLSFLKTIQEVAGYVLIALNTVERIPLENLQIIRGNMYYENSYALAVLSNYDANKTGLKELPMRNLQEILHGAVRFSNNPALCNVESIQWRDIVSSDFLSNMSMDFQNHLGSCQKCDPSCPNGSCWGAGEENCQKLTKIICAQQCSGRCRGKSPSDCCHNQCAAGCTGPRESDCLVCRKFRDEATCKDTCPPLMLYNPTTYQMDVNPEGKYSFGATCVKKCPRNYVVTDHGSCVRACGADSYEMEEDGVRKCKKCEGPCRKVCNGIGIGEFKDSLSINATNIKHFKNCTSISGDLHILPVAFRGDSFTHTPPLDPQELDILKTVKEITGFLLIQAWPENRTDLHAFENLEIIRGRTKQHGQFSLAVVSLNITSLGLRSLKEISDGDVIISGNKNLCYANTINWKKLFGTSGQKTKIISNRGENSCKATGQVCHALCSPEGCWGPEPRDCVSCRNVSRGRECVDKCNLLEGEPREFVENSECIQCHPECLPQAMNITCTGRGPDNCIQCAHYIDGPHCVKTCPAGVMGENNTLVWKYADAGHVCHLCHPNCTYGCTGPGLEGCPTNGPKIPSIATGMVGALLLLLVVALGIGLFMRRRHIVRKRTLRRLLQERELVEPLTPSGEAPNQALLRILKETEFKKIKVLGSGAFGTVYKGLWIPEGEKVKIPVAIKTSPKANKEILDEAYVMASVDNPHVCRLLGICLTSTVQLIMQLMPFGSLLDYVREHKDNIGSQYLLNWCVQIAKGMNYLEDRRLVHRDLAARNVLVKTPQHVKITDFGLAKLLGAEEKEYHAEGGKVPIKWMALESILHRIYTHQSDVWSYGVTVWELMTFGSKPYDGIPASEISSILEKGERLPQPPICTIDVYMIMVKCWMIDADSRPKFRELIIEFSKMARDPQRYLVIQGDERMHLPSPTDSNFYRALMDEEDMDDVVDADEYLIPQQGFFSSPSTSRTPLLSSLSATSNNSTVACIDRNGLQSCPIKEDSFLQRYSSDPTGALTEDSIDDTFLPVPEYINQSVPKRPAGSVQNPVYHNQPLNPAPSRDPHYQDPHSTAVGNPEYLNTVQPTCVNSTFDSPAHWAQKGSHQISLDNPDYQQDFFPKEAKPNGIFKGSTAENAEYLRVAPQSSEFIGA
T2 sequence (P00533 25-1210): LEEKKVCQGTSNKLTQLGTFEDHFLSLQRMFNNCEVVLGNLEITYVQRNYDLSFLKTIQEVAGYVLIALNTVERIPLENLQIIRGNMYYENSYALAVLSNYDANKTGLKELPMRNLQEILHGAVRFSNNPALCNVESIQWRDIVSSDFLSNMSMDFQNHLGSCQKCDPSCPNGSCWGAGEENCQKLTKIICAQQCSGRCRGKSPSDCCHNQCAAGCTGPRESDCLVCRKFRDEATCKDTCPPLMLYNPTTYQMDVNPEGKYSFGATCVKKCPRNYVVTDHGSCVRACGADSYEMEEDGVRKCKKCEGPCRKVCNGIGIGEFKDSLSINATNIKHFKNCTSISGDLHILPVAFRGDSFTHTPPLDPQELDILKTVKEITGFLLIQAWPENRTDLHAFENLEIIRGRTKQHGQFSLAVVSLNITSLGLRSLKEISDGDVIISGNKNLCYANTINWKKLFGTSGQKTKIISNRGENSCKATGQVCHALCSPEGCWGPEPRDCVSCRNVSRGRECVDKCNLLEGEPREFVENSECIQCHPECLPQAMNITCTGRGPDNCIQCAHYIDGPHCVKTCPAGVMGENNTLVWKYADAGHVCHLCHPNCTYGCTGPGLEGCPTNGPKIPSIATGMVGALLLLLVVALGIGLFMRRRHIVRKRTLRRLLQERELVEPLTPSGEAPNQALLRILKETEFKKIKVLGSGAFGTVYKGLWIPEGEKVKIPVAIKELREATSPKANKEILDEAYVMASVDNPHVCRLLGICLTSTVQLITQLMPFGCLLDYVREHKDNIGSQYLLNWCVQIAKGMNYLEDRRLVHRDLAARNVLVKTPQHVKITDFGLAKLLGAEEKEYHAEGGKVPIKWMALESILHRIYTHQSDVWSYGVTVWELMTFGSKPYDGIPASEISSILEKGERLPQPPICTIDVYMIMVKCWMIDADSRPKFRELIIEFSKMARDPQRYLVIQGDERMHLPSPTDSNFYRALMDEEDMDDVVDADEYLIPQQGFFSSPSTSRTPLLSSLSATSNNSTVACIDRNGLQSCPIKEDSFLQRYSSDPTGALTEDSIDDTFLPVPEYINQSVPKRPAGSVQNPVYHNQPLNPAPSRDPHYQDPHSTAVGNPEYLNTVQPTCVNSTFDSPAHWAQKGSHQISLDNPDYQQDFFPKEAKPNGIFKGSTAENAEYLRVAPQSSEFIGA
EGFR^L858R/T790M/C797S, sequence (P00533 25-1210 T790M/C797S/L858R): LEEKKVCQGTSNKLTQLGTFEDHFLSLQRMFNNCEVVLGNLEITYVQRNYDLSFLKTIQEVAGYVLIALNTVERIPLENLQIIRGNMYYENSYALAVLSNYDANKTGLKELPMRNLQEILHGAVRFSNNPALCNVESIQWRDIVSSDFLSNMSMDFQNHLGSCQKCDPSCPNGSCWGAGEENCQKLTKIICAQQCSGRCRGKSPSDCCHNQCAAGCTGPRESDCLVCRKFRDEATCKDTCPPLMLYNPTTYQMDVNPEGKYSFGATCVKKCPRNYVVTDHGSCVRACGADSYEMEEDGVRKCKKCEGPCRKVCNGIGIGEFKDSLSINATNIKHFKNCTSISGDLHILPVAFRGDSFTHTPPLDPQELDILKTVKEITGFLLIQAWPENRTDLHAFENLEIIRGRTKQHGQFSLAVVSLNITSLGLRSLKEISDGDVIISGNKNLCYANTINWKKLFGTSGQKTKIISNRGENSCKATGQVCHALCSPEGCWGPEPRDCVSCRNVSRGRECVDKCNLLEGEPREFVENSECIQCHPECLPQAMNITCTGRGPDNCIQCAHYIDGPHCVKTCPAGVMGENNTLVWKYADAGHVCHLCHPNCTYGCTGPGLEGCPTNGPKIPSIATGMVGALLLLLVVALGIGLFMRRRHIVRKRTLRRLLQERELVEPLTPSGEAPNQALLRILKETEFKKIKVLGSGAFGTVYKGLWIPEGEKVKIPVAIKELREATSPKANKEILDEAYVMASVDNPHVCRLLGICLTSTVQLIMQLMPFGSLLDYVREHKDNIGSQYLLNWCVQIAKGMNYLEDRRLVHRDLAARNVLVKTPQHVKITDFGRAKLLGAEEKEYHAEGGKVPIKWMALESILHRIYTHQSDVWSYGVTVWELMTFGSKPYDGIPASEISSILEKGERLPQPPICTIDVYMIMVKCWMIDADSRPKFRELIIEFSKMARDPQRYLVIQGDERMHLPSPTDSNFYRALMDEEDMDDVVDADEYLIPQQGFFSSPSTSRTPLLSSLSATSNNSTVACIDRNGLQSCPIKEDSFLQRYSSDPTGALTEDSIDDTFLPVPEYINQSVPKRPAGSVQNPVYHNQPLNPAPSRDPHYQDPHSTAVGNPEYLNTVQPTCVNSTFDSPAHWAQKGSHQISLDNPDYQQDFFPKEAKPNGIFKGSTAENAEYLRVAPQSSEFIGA

`CCS(=O)(=O)n1cc2c3ccc(cc31)OCCCn1ccc(n1)-c1cc(c(C(C)C)cc1N1CCOCC1)Nc1nccc-2n1` [FBH-3-48, (Z)-1^1-(ethylsulfonyl)-4^6-isopropyl-4^4-morpholino-1^1H,5^1H-9-oxa-3-aza-1(3,6)-indole-2(4,2)-pyrimidine-5(4,1)-pyrazole-4(1,3)-benzenacyclononaphane]: the IC50 on EGFR^19del/T790M/C797S is 8.2 nM; on EGFR^WT, greater than 1000 nM.

For the compound `CCS(=O)(=O)n1cc2c3ccc(cc31)OCCCn1ccc(n1)-c1cc(c(C3CC3)cc1N1CCOCC1)Nc1nccc-2n1` [FBH-3-66, (Z)-4^6-cyclopropyl-1^1-(ethylsulfonyl)-4^4-morpholino-1^1H,5^1H-9-oxa-3-aza-1(3,6)-indole-2(4,2)-pyrimidine-5(4,1)-pyrazol-4(1,3)-benzenacyclononaphane], the IC50 on EGFR^19del/T790M/C797S was 33 nM; at EGFR^WT, greater than 1000 nM.

As to `CCS(=O)(=O)n1cc2c3ccc(cc31)OCCCn1ccc(n1)-c1cc(c(OC(C)C)cc1N1CCOCC1)Nc1nccc-2n1` [FBH-3-84, (Z)-1^1-(ethylsulfonyl)-4^6-isopropoxy-4^4-morpholinyl-1^1H,5^1H-9-oxa-3-aza-1(3,6)-indole-2(4,2)-pyrimidin-5(4,1)-pyrazol-4(1,3)-benzocyclononaphthalene], the IC50 on EGFR^19del/T790M/C797S is 267 nM; at EGFR^WT, greater than 1000 nM.

Turning to `CCS(=O)(=O)n1cc2c3ccc(cc31)OCCCn1ccc(n1)-c1cc(c(C(F)(F)F)cc1N1CCOCC1)Nc1nccc-2n1` [FBH-3-92, (Z)-1^1-(ethylsulfonyl)-4^4-morpholinyl-4^6-(trifluoromethyl)-1^1H,5^1H-9-oxa-3-aza-1(3,6)-indole-2(4,2)-pyrimidine-5(4,1)-pyrazole-4(1,3)-benzenacyclononaphane], the figures for the IC50 at EGFR^L858R/T790M/C797S and on EGFR^WT were 159 nM and greater than 1000 nM, respectively.

For the compound `CCS(=O)(=O)n1cc2c3ccc(cc31)OCCCn1ccc(n1)-c1cc(c(OC)cc1N1CCOCC1)Nc1nccc-2n1` [FBH-4-6, (E)-1^1-(ethylsulfonyl)-4^6-methoxy-4^4-morpholinyl-1^1H,5^1H-9-oxa-3-aza-1(3,6)-indole-2(4,2)-pyrimidine-5(3,1)-pyrazole-4(1,3)-benzocyclononaphthalene], the IC50 on EGFR^L858R/T790M/C797S is 147 nM; on EGFR^WT, greater than 1000 nM.

In the case of `CCS(=O)(=O)n1cc2c3ccc(cc31)OCCCn1ccc(n1)-c1cc(c(OC3CC3)cc1N1CCOCC1)Nc1nccc-2n1` [FBH-4-24, (Z)-4^6-cyclopropoxy-1^1-(ethylsulfonyl)-4^4-morpholinyl-1^1H,5^1H-9-oxa-3-aza-1(3,6)-indole-2(4,2)-pyrimidine-5(4,1)-pyrazole-4(1,3)-benzocyclononaphthalene], the results for the IC50 at EGFR^L858R/T790M/C797S and on EGFR^WT were 98.5 nM and 189 nM, respectively.

`CCS(=O)(=O)n1cc2c3ccc(cc31)OCCCn1ccc(n1)-c1cc(c(OC(F)(F)F)cc1N1CCOCC1)Nc1nccc-2n1` [FBH-4-48, (Z)-1^1-(ethylsulfonyl)-4^4-morpholinyl-4^6-(trifluoromethoxy)-1^1H,5^1H-9-oxa-3-aza-1(3,6)-indole-2(4,2)-pyrimidine-5(4,1)-pyrazole-4(1,3)-benzocyclononaphthalene]: the figures for the IC50 on EGFR^L858R/T790M/C797S and at EGFR^WT were 135 nM and greater than 1000 nM, respectively.

With `CCS(=O)(=O)n1cc2c3ccc(cc31)OCCCn1cc(cn1)-c1cc(c(C)cc1N1CCOCC1)Nc1ncc(Cl)c-2n1` [HC916, 2^5-chloro-1^1-ethylsulfonyl-4^6-methyl-4^4-morpholino-1^1H,5^1H-9-oxa-3-aza-1(3,6)-indole-2(4,2)-pyrimidin-5(4,1)-pyrazol-4(1,3)-benzenacyclononaphane], the figures for the IC50 at EGFR^L858R/T790M/C797S, at EGFR^19del/T790M/C797S and on EGFR^WT were 167 nM, 129 nM and greater than 1000 nM, respectively.

In the case of `Cc1cc(N2CCOCC2)c2cc1Nc1ncc(Cl)c(n1)-c1cn(C)c3cc(ccc13)OCCCn1cc-2cn1` [HC8991, 2^5-Chloro-1^1,4^6-dimethyl-4^4-morpholino-1^1H,5^1H-9-oxa-3-aza-1(3,6)-Indole-2(4,2)-Pyrimidin-5(4,1)-Pyrazolol-4(1,3)-benzenacyclononaphane], the IC50 was 6.8 nM on EGFR^19del/T790M/C797S and greater than 1000 nM on EGFR^WT.

For the compound `CCS(=O)(=O)n1cc2c3ccc(cc31)OCCCn1cc(cn1)-c1cc(cc(C3CCCC3)c1N1CCOCC1)Nc1ncc(Cl)c-2n1` [HC9001, 2^5-chloro-4^5-cyclopentyl-1^1-ethylsulfonyl-4^4-morpholino-1^1H,5^1H-9-oxa-3-aza-1(3,6)-indole-2(4,2)-pyrimidin-5(4,1)-pyrazol-4(1,3)-benzenacyclononaphane], the IC50 at EGFR^L858R/T790M/C797S is 183 nM; at EGFR^19del/T790M/C797S it was 82.3 nM; at EGFR^WT, greater than 1000 nM.

For `C=C(C)c1cc2cc(c1N1CCOCC1)-c1cnn(c1)CCCOc1ccc3c(cn(S(=O)(=O)CC)c3c1)-c1nc(ncc1Cl)N2` [HC9002, 2^5-Chloro-1^1-ethylsulfonyl-4^4-morpholino-4^5-propenyl-1^1H,5^1H-9-oxa-3-aza-1(3,6)-indole-2(4,2)-pyrimidine-5(4,1)-pyrazole-4(1,3)-benzenacyclononaphane], the IC50 was 59 nM at EGFR^L858R/T790M/C797S, 24.7 nM on EGFR^19del/T790M/C797S and greater than 1000 nM on EGFR^WT.

With `CCS(=O)(=O)n1cc2c3ccc(cc31)OCCCn1cc(cn1)-c1cc(cc(C=C(C)C)c1N1CCOCC1)Nc1ncc(Cl)c-2n1` [HC9003, 2^5-Chloro-1^1-ethylsulfonyl-4^4-morpholino-4^5-2-methylpropan-1-en-1-yl-1^1H,5^1H-9-oxa-3-aza-1(3,6)-indole-2(4,2)-pyrimidine-5(4,1)-pyrazole-4(1,3)-benzenacyclononaphane], the figures for the IC50 on EGFR^L858R/T790M/C797S, at EGFR^19del/T790M/C797S and at EGFR^WT were 69.7 nM, 29 nM and greater than 1000 nM, respectively.

For `CCS(=O)(=O)n1cc2c3ccc(cc31)OCCCn1cc(cn1)-c1cc(cc(/C=C/C(C)(C)C)c1N1CCOCC1)Nc1ncc(Cl)c-2n1` [HC9004], the IC50 was 384 nM at EGFR^L858R/T790M/C797S, 195 nM on EGFR^19del/T790M/C797S and greater than 1000 nM on EGFR^WT.

For `CCS(=O)(=O)n1cc2c3ccc(cc31)OCC(C)Cn1cc(cn1)-c1cc(ccc1N1CCOCC1)Nc1ncc(Cl)c-2n1` (centres unmarked) [HC9281, 2^5-chloro-1^1-ethylsulfonyl-7-methyl-4^4-morpholino-1^1H, 5^1H-9-oxa-3-aza-1(3,6)-indole-2(4,2)-pyrimidine-5(4,1)-pyrazole-4(1,3)-benzenacyclononaphane], the IC50 is 30.5 nM on EGFR^L858R/T790M/C797S, 30.5 nM at EGFR^19del/T790M/C797S and greater than 1000 nM at EGFR^WT.

On to `CCS(=O)(=O)n1cc2c3ccc(cc31)OCC1(CC1)Cn1cc(cn1)-c1cc(ccc1N1CCOCC1)Nc1ncc(Cl)c-2n1` [HC9282, (Z)-5′-Chloro-1′(Ethylsulfonyl)-4′-morpholino spiro [Cyclopropane-1,7′-9-oxa-3-aza-1(3,6)-indole-2(4,2)-pyrimidine-5(4,1)-pyrazolol-4(1,3)-benzenacyclononaphane]], for which the IC50 on EGFR^L858R/T790M/C797S was 45.8 nM; at EGFR^19del/T790M/C797S, 45.8 nM; at EGFR^WT, greater than 1000 nM.

With `CCS(=O)(=O)n1cc2c3ccc(cc31)OCCCn1cc(cn1)-c1cc(c(OC)cc1N1CCOCC1)Nc1ncc(Cl)c-2n1` [HC9284, 2^5-Chloro-1^1-ethylsulfonyl-4^6-methoxy-4^4-morpholin-1^1H,5^1H-9-oxa-3-aza-1(3,6)-indole-2(4,2)-pyrimidine-5(4,1)-pyrazole-4(1,3)-benzenacyclononaphane], the IC50 on EGFR^L858R/T790M/C797S stood at 35.1 nM; at EGFR^19del/T790M/C797S it was 35.1 nM; on EGFR^WT, 154 nM.

As for `CCS(=O)(=O)n1cc2c3ccc(cc31)OCCCn1cc(cn1)-c1cc(c(OC)cc1N1CCN(C)CC1)Nc1nccc-2n1` [HC9592, (Z)-1^1-ethylsulfonyl-4^6-methoxy-4^4-(4-methylpiperazin-1-yl)-1^1H,5^1H-9-oxa-3-aza-1(3,6)-indole-2(4,2)-pyrimidine-5(4,1) pyrazole-4(1,3)-benzenacyclononaphane], the IC50 on EGFR^L858R/T790M/C797S was determined as 1.4 nM; on EGFR^19del/T790M/C797S, 2.9 nM; on EGFR^WT it was 898 nM.

As for `CCS(=O)(=O)n1cc2c3ccc(cc31)OCCCn1cc(cn1)-c1cc(c(OC)cc1N1CCOC(C)C1)Nc1nccc-2n1` (centres unmarked) [WQX-2-43, (Z)-1^1-(Ethylsulfonyl)-4^6-methoxy-4^4-(2-methylmorpholinyl)-1^1H,5^1H-9-oxa-3-aza-1(3,6)-indol-2(4,2)-pyrimidin-5(4,1)-pyrazol-4(1,3)-benzocyclononane], the values for the IC50 on EGFR^L858R/T790M/C797S and at EGFR^WT were 57.8 nM and 146 nM, respectively.

`CCS(=O)(=O)n1cc2c3ccc(cc31)OCCCn1cc(cn1)-c1cc(c(OC)cc1N1CCOCC1)Nc1ncc(F)c-2n1` [WQX-2-79, (Z)-1^1-(ethylsulfonyl)-2^5-fluoro-4^6-methoxy-4^4-morpholinyl-1^1H,5^1H-9-oxa-3-aza-1(3,6)-indole-2(4,2)-pyrimidin-5(4,1)-pyrazol-4(1,3)-benzenacyclononaphane]: the figures for the IC50 at EGFR^L858R/T790M/C797S and on EGFR^WT were 102 nM and 255 nM, respectively.
